Source: patent publication US10500169B2, “Supression of IgE production by compounds derived from traditional chinese medicine” (Sean N. Parker Foundation, priority 2014, dated 2019)

How the values were obtained:
[1] = test system: U266 cells; experiment: Cell viability of U266 cells, trypan blue exclusion; format: cell-based, human; details: at the concentrations tested
Description: Cell viability was evaluated using a trypan blue exclusion as previously described. Briefly, a 10 μl of cells suspension from each culture was mixed with equal volume of trypan blue dye. The mixture was loaded into a hemocytometer and cells were counted under a microscope. The percentage of viable cells was calculated as follows: Viable cells (%)=(total number of viable cells)/(total number of cells)×100.

[2] = test system: human PBMCs; experiment: IgE production by PBMCs from food allergic patients stimulated with rIL-4 and anti-CD40 mAb, ELISA; format: cell-based; details: 10 days
Description: PBMCs were isolated by Ficoll Hypaque (Pharmacia, Piscataway, N.J.) using density gradient centrifugation at 1800 RPM for 30 minutes, and washed 3 times in PBS. To determine the optimal stimulation of IgE production by PBMCs, PBMCs at 1.5×10^6 cells/mL were suspended in complete RPMI medium (200 μM L-glutamine, 1% penicillin/streptomycin, 25 mM HEPES, 10% heat inactivated fetal calf serum), and co-stimulated with human recombinant IL-4 (rIL-4) at 0.01 and 0.1 μg/mL (R&D Systems, Minneapolis, Minn., USA) and anti-CD40 monoclonal antibody (mAb) at […] (R&D) for 10 and 14 days. At the end of incubation, the supernatants were collected and IgE levels were analyzed using ELISA kit (Mabtech Inc, OH). Since PBMCs stimulated with 100 ng/mL rIL-4 and 1 μg/mL anti-CD40 mAb produced the highest level of IgE, we used this culture condition for the subsequent studies. PBMCs were stimulated with 100 ng/mL rIL-4 and 1 μg/mL anti-CD40 mAb and cultured in the presence or absence of 20 μg/mL of the two purified compounds for 10 days for screening active compounds, and at different concentrations (0.15, 0.31, 0.62, 1.25, 2.5, 5, 10 μg/mL) to examine dose responses for the effective compounds. IgE level was evaluated using ELISA. The percentage of IgE inhibition was calculated as follows: […]. In some cases if enough PBMCs were obtained, aliquots of PBMCs prepared from the same individuals were used for different experiments.

[3] = test system: εGLT; experiment: RT-PCR of epsilon germline transcripts in PBMCs; format: cell-based, human; details: 10 μg/mL, 4 days, vs untreated cultures
Description: (§1) Quantitative real time PCR was used to detect the epsilon germline transcription. Human PBMC cells (1.5×10^6 cells/mL) were co-incubated with DMF-C1 compound (10 μg/mL) at 37° C. under 5% CO2 for 4 days. Cells were then harvested and total RNA was isolated using Trizol reagent (Gibco BRL, Rockville, Md.) following the manufacturer's instructions. The RNA concentrations were then quantified by triplicate optical density (OD) readings (Bio-Rad SmartSpect 3000; Bio-Rad, Hercules, Calif.). The reverse transcription was performed to get the cDNA using ImProm-II™ Reverse Transcriptase (Promega Corporation, Madison, Wis.) as described by the manufacturer's instructions. The RT-PCR amplification was performed using Maxima™ SYBR Green qPCR Master Mix (2×) kit (Fisher Scientific, Pittsburgh, Pa.) with epsilon germline primers or GAPDH primers. The primer sequences were listed as εGLT forward: 5′-[…]-3′; εGLT reverse: 5′-[…]-3′; GAPDH-forward: 5′-[…]-3′; GAPDH-reverse: 5′-[…]-3′; STAT3-forward: 5′-[…]-3′; STAT3-reverse: 5′-[…]-3′; T-bet-forward: 5′-[…]-3′; T-bet-reverse: 5′-[…]-3′; IFN-γ-forward: 5′-[…]-3′; IFN-γ-reverse: 5′-[…]-3′; IL-10-forward: 5′-[…]-3′; IL-10-reverse: 5′-[…]-3′. IL-5-forward. 5′-[…] TGCA-3′; IL-5-reverse: 5′-[…]-3′. All primers were synthesized by Sigma-Aldrich Corporation (St. Louis, Mo.).

[4] = test system: phosphorylated-IκBα; experiment: In-Cell Western of phosphorylated IκBα in PBMCs; format: cell-based, human; details: 10 μg/mL, vs non-treated stimulated cells
Description: PBMCs (1×10^5 cells/mL) were cultured with or without DMF-C1 (10 μg/mL) and stimulated with or without rIL-4 (100 ng/mL) and anti-CD40 (1 μg/mL) mAb for 10 days. In-Cell Western Assay (Li-Cor, Lincoln, Nebr.) was performed following the manufacturer's instructions. In brief, cells were incubated with antibodies against phosphorylated-IκBα (p-IκBα; Cell Signaling) and β-actin (Santa Cruz Biotechnology) overnight. After washing with 0.1% Tween PBS buffer, secondary antibodies IRDye800CW donkey anti-goat and IRDye680 donkey anti-rabbit (LI-Cor) were added and incubated at room temperature for 1 hour in the dark. Plates were scanned and analyzed with Odyssey CLx Infrared Imaging System.

[5] = test system: IFN-γ; experiment: RT-PCR gene expression in stimulated PBMCs: IFN-γ; format: cell-based, human; details: 10 μg/mL
Description: as §1

[6] = test system: IL-5; experiment: RT-PCR gene expression in stimulated PBMCs: IL-5; format: cell-based, human; details: 10 μg/mL
Description: as §1

[7] = In vivo pharmacokinetics study of berberine bioavailability, serum LC-MS; details: C3H/HeJ, mouse, oral berberine 2 mg, with or without Angelica sinensis 10 mg, 1 hr after administration, read-out: Concentration of berberine in serum from mice
Description: C3H/Hej mice were purchased from Jackson laboratory (Bar Harbor, Me.) and maintained in the animal facility at Mount Sinai School of Medicine^(39). Standard guidelines for the care and use of animals were followed (Institute of Laboratory Animal Resources Commission of Life Sciences, 1996). In order to study the bioavailability, C3H/Hej mice were randomly separated into two groups. Mice were fasted for 12 h before the oral administration of berberine (2 mg) or berberine (2 mg)+Angelica sinensis (10 mg). Blood samples (100 μl) were collected from the facial vein at 1 hr after the administration. The serum of each blood sample was prepared and stored at −80° C. for further analysis. For in vivo study of berberine bioavailability, 50 μL of each serum sample was mixed with 400 μL of acetonitrile and vortexed thoroughly. The mixture was then centrifuged at 1000 rpm for 15 mins. The supernatant was dried under vacuum and resuspended into 50 μL of acetonitrile. All samples were analyzed using waters LC-MS system (Waters corp. MA) for berberine detection. Molecular weight was identified by LC-MS/TOF analysis in elctrospray (ESI) positive mode. The LCT premier TOF mass spectrometer (Waters Corporation, Milford, Mass.) was coupled to Waters Alliance 2695 HPLC system. […]. The mass range was from m/z 50 to 1000 in W optics mode. […]

Structure (SMILES): COc1ccc2cc3[n+](cc2c1OC)CCc1cc2c(cc1-3)OCO2 [berberine]
- cell viability of U266 cells [1]: no toxicity
- inhibition of IgE production by human PBMCs ([2]; 20 μg/mL, rIL-4 100 ng/mL + anti-CD40 mAb 1 μg/mL): completely inhibited
- inhibition at 0.62 µg/mL ([2]; Homo sapiens, PBMC, 240 h, 0.62 μg/mL, read-out: inhibition percentage of IgE production by PBMCs): 80.7 ± 9.24%
- IC50 ([2]; Homo sapiens, PBMC, 240 h, rIL-4 + anti-CD40 mAb, read-out: IC50 of inhibition of IgE production by PBMCs): 0.2 µg/mL
- relative mRNA expression of εGLT [3]: significantly inhibited
- phosphorylated IκBα levels [4]: significantly suppressed
- mRNA level of IFN-γ [5]: trend of increase
- mRNA level of IL-5 [6]: significantly decreased
- concentration at 1 h [7]: 280 ng/mL
